How the values were obtained:
[1] = target: T1, Recombinant mTOR (FRAP1) (Homo sapiens, UniProt P42345); assay: mTOR in vitro kinase assay (TR-FRET, phosphorylation of GFP-4E-BP1); type: biochemical; details: for IC50: 8 μM ATP, 400 nM GFP-4E-BP1; for inhibition at 1 µM: 1 uM compound, read-out: mTOR % Inhib@1 uM
T1 construct: purchased Invitrogen
How it was run: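 Recombinant human mTOR with GFP-4E-BP1 substrate at 400 nM and 8 μM ATP, 1 h at room temperature, then quenched with 10 mM EDTA plus 2 nM Tb-anti-p4E-BP1 (pThr46) for 1 h. TR-FRET 520/486 nm ratio fitted against inhibitor concentration by four-parameter sigmoidal regression.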

[2] = target: T2, PI3 Kinase alpha (p110 alpha/p85 alpha) (Homo sapiens, UniProt P42336); assay: PI3K TR-FRET assay (Transcreener ADP2); type: biochemical; details: for inhibition at 1 µM: 1 uM compound, read-out: PI3K % Inhib@1 uM; for IC50: PI3K alpha, 1 μM ATP, 50 μM PIP2
T2 construct: purchased Invitrogen
How it was run: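 p110α/p85α with diC8 PIP2 (50 μM) and 1 μM ATP in 50 mM HEPES pH 7.4, MgCl2, CHAPS, DTT, EGTA; 1 h at room temperature. ADP detected by Transcreener ADP2 TR-FRET (665/615 nm ratio), converted to product via ADP-ATP standard curve; IC50 from four-parameter fit of % inhibition.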

T1 sequence (P42345 1360-2549 limits assumed): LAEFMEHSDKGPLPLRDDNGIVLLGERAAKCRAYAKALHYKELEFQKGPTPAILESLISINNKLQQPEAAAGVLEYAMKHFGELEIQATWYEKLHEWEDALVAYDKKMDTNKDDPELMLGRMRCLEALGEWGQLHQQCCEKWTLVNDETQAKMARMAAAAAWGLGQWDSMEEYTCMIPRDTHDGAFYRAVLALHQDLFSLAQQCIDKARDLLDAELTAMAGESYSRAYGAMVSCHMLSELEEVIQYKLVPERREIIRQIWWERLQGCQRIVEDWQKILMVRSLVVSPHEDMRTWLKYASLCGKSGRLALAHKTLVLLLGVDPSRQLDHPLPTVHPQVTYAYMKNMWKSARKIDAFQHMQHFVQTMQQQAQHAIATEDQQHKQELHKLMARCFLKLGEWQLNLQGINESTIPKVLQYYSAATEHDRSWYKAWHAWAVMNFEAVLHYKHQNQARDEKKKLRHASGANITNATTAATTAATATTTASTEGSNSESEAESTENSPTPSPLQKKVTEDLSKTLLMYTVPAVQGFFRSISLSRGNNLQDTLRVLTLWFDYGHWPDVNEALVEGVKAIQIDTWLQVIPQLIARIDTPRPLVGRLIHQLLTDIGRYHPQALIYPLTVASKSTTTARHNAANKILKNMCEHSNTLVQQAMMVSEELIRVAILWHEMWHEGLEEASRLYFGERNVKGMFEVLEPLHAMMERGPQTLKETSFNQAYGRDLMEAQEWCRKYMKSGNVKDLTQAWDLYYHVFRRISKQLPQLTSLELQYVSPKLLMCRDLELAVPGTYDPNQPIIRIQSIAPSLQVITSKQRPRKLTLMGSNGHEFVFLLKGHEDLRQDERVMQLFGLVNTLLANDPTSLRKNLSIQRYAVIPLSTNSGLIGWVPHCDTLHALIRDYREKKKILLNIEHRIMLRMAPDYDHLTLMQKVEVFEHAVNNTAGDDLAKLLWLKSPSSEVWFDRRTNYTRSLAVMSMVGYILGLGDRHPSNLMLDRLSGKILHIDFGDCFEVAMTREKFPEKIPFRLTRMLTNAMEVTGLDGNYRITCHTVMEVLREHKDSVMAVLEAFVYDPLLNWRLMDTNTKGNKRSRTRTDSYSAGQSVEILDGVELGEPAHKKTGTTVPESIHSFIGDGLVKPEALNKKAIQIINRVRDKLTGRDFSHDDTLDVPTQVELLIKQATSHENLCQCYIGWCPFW
T2 sequence (P42336 whole entry): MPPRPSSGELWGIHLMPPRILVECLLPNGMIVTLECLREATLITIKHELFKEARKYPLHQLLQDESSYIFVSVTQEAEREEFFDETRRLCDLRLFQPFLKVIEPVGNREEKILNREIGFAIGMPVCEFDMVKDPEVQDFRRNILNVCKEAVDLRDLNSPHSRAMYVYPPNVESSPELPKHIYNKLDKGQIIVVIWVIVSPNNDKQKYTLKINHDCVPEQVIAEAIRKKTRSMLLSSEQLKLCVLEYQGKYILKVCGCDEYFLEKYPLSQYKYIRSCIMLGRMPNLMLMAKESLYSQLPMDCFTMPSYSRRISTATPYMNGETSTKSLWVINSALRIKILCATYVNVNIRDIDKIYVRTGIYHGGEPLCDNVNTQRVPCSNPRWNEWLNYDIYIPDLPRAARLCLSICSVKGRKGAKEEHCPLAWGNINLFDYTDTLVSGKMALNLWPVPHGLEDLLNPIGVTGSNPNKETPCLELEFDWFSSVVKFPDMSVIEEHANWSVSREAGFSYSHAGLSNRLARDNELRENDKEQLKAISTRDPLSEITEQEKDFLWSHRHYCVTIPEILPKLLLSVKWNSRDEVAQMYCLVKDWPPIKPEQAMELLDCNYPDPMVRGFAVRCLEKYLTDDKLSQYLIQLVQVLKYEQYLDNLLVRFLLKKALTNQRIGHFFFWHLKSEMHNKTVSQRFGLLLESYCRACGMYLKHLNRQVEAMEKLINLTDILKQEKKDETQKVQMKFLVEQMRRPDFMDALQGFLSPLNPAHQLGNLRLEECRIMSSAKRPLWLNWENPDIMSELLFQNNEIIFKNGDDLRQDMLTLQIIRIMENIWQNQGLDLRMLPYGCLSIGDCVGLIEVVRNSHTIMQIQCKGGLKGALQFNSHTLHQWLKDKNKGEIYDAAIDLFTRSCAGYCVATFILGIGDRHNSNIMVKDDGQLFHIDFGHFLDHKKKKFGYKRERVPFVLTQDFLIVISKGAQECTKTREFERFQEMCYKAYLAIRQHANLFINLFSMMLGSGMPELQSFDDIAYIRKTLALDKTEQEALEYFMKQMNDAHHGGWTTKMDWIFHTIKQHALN
T2 sequence (P27986 whole entry partner): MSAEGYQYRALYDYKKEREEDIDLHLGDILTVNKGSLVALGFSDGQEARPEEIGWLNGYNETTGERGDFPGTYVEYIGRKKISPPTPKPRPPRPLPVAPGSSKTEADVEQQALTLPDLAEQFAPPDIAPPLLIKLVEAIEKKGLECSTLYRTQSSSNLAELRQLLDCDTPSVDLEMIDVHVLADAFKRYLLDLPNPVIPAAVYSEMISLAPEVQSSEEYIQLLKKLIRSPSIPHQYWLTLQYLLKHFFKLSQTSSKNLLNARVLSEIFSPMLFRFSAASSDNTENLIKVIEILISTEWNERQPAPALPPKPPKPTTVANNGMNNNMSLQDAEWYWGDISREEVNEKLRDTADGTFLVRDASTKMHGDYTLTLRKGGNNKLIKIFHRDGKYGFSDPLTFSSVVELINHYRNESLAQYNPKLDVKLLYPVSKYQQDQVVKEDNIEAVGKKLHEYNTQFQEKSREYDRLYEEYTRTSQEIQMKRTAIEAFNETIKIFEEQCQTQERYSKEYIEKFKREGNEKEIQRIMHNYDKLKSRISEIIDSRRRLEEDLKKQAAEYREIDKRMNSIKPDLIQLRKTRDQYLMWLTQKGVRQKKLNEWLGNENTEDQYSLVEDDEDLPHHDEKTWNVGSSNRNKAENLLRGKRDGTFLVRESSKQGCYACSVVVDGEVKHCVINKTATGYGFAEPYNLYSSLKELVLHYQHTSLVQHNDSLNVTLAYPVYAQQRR

CN(C)C(=O)[C@H]1CC[C@H](Oc2nc(-c3cnc(N)s3)nc(N3CCO[C@H]4CCC[C@@H]43)n2)CC1 [Compound 10145, (1S,4r)-4-(4-(2-aminothiazol-5-yl)-6-((4aS,7aS)-hexahydrocyclopenta[b][1,4]oxazin-4(4aH)-yl)-1,3,5-triazin-2-yloxy)-N,N-dimethylcyclohexanecarboxamide]
IC50 [1]: > 1000 nM
inhibition at 1 µM [2]: < 50%

CN(C)C(=O)c1ccc(Oc2nc(-c3cnc(N)s3)nc(N3CCO[C@H]4CCC[C@@H]43)n2)c(F)c1 [Compound 10146, 4-(4-(2-aminothiazol-5-yl)-6-((4aS,7aS)-hexahydrocyclopenta[b][1,4]oxazin-4(4aH)-yl)-1,3,5-triazin-2-yloxy)-3-fluoro-N,N-dimethylbenzamide]
IC50 [1]: < 1000 nM
IC50 [2]: < 1000 nM

C[C@H]1COCCN1c1nc(OC2CCC(C(=O)N(C)C)CC2)nc(-c2cccc(CO)c2)n1 (stereo partly drawn) [Compound 10147, (1R,4s)-4-(4-(3-(hydroxymethyl)phenyl)-6-((S)-3-methylmorpholino)-1,3,5-triazin-2-yloxy)-N,N-dimethylcyclohexanecarboxamide]
IC50 [1]: > 1000 nM
inhibition at 1 µM [2]: > 50%

CN(C)C(=O)[C@H]1CC[C@H](Oc2nc(-c3ccc(N)nc3)nc(N3CCO[C@@H]4CCC[C@H]43)n2)CC1 [Compound 10148, (1R,4r)-4-(4-(6-aminopyridin-3-yl)-6-((4aR,7aR)-hexahydrocyclopenta[b][1,4]oxazin-4(4aH)-yl)-1,3,5-triazin-2-yloxy)-N,N-dimethylcyclohexanecarboxamide]
IC50 [1]: < 1000 nM
inhibition at 1 µM [2]: < 50%

CN(C)C(=O)C1CCC(Oc2nc(-c3ccc4[nH]ccc4c3)nc(N3CCO[C@@H]4CCC[C@H]43)n2)CC1 (stereo partly drawn) [Compound 10150, (1S,4s)-4-(4-((4aR,7aR)-hexahydrocyclopenta[b][1,4]oxazin-4(4aH)-yl)-6-(1H-indol-5-yl)-1,3,5-triazin-2-yloxy)-N,N-dimethylcyclohexanecarboxamide]
IC50 [1]: > 10000 nM
inhibition at 1 µM [2]: < 50%

C[C@H]1CN(c2nc(Oc3ccc(C(=O)N(C)C)cc3F)nc(-c3cnc(N)s3)n2)[C@@H](C)CO1 [Compound 10153, 4-(4-(2-aminothiazol-5-yl)-6-((2S,5S)-2,5-dimethylmorpholino)-1,3,5-triazin-2-yloxy)-3-fluoro-N,N-dimethylbenzamide]
IC50 [1]: < 1000 nM
inhibition at 1 µM [2]: < 50%
IC50 [2]: < 1000 nM

CN(C)C(=O)c1ccc(Oc2nc(-c3cnc(N)s3)nc(N3CC4CCC(C3)O4)n2)c(F)c1 [Compound 10154, 4-(4-(8-oxa-3-aza-bicyclo[3.2.1]octan-3-yl)-6-(2-aminothiazol-5-yl)-1,3,5-triazin-2-yloxy)-3-fluoro-N,N-dimethylbenzamide]
IC50 [1]: < 1000 nM
inhibition at 1 µM [2]: < 50%
IC50 [2]: > 1000 nM

C[C@@H]1COCCN1c1nc(Oc2ccc(C(=O)N(C)C)cc2F)nc(-c2cnc(N)s2)n1 [Compound 10156, 4-(4-(2-aminothiazol-5-yl)-6-((R)-3-methylmorpholino)-1,3,5-triazin-2-yloxy)-3-fluoro-N,N-dimethylbenzamide]
IC50 [1]: < 1000 nM
inhibition at 1 µM [2]: < 50%
IC50 [2]: 3000 nM

C[C@H]1COCCN1c1nc(Oc2ccc(C(=O)N(C)C)cc2)nc(-c2cnc3[nH]ccc3c2)n1 [Compound 10157, 4-(4-((S)-3-methylmorpholino)-6-(1H-pyrrolo[2,3-b]pyridin-5-yl)-1,3,5-triazin-2-yloxy)-N,N-dimethylbenzamide]
IC50 [1]: < 1000 nM
IC50 [2]: < 1000 nM

CN(C)C(=O)c1ccc(Oc2nc(-c3cnc4[nH]ccc4c3)nc(N3CCOCC3)n2)c(F)c1 [Compound 10158, 4-(4-morpholino-6-(1H-pyrrolo[2,3-b]pyridin-5-yl)-1,3,5-triazin-2-yloxy)-3-fluoro-N,N-dimethylbenzamide]
IC50 [1]: < 1000 nM
IC50 [2]: < 1000 nM

CC1OCCN(c2nc(Oc3ccc(C(=O)N(C)C)cc3F)nc(-c3cnc(N)s3)n2)C1C (stereo not drawn) [Compound 10159, 4-(4-(2-aminothiazol-5-yl)-6-(2,3-dimethylmorpholino)-1,3,5-triazin-2-yloxy)-3-fluoro-N,N-dimethylbenzamide]
IC50 [1]: < 1000 nM
IC50 [2]: < 1000 nM

C[C@@H]1CO[C@@H](C)CN1c1nc(Oc2ccc(C(=O)N(C)C)cc2F)nc(-c2ccc3[nH]ncc3c2)n1 [Compound 10161, 4-(4-(1H-indazol-5-yl)-6-((2S,5R)-2,5-dimethylmorpholino)-1,3,5-triazin-2-yloxy)-3-fluoro-N,N-dimethylbenzamide]
IC50 [1]: < 1000 nM
IC50 [2]: > 10000 nM

C[C@@H]1CN(c2nc(Oc3ccc(C(=O)N(C)C)cc3F)nc(-c3ccc4[nH]ncc4c3)n2)[C@H](C)CO1 [Compound 10162, 4-(4-(1H-indazol-5-yl)-6-((2R,5R)-2,5-dimethylmorpholino)-1,3,5-triazin-2-yloxy)-3-fluoro-N,N-dimethylbenzamide]
IC50 [1]: > 1000 nM
IC50 [2]: > 10000 nM

CN(C)C(=O)c1ccc(Oc2nc(-c3cccc4[nH]ncc34)nc(N3[C@@H]4CC[C@H]3COC4)n2)cc1 [Compound 10174, 4-((4-((1R,5S)-3-oxa-8-azabicyclo[3.2.1]octan-8-yl)-6-(1H-indazol-4-yl)-1,3,5-triazin-2-yl)oxy)-N,N-dimethylbenzamide]
inhibition at 1 µM [1]: < 50%
IC50 [2]: > 1000 nM

Nc1ccc(-c2nc(CO)nc(N3CCOCC3)n2)cn1 [Compound 10176, (4-(6-aminopyridin-3-yl)-6-morpholino-1,3,5-triazin-2-yl)methanol]
inhibition at 1 µM [1]: < 50%
IC50 [2]: < 1000 nM

CN(C)C(=O)c1ccc(Oc2nc(-c3ccc(N)nc3)nc(N3CCCOCC3)n2)cc1 [Compound 10178, 4-((4-(6-aminopyridin-3-yl)-6-(1,4-oxazepan-4-yl)-1,3,5-triazin-2-yl)oxy)-N,N-dimethylbenzamide]
inhibition at 1 µM [1]: < 50%
IC50 [2]: < 1000 nM

CN(C)C(=O)Cc1ccc(Oc2nc(-c3ccc(N)nc3)nc(N3CCOCC3)n2)cc1 [Compound 10180, 2-(4-((4-(6-aminopyridin-3-yl)-6-morpholino-1,3,5-triazin-2-yl)oxy)phenyl)-N,N-dimethylacetamide]
inhibition at 1 µM [1]: > 50%
IC50 [1]: < 1000 nM
IC50 [2]: < 1000 nM

Cc1cc(Oc2nc(-c3ccc(N)nc3)nc(N3CCOCC3)n2)ccc1C(=O)N(C)C [Compound 10181, 4-((4-(6-aminopyridin-3-yl)-6-morpholino-1,3,5-triazin-2-yl)oxy)-N,N,2-trimethylbenzamide]
inhibition at 1 µM [1]: > 50%
IC50 [1]: < 1000 nM
IC50 [2]: < 1000 nM

Nc1ccc(-c2nc(Oc3ccc4c(c3)CCC(=O)N4)nc(N3CCOCC3)n2)cn1 [Compound 10182, 6-((4-(6-aminopyridin-3-yl)-6-morpholino-1,3,5-triazin-2-yl)oxy)-3,4-dihydroquinolin-2(1H)-one]
inhibition at 1 µM [1]: > 50%
IC50 [1]: > 1000 nM
IC50 [2]: < 1000 nM

CS(=O)(=O)N1CCC(COc2nc(-c3ccc(N)nc3)nc(N3CCOCC3)n2)CC1 [Compound 10185, 5-(4-((1-(methylsulfonyl)piperidin-4-yl)methoxy)-6-morpholino-1,3,5-triazin-2-yl)pyridin-2-amine]
inhibition at 1 µM [1]: < 50%
IC50 [2]: < 1000 nM

CN(C)C(=O)NC1CCN(c2nc(-c3ccc(N)nc3)nc(N3CCOCC3)n2)CC1 [Compound 10188, 3-(1-(4-(6-aminopyridin-3-yl)-6-morpholino-1,3,5-triazin-2-yl)piperidin-4-yl)-1,1-dimethylurea]
inhibition at 1 µM [1]: < 50%
IC50 [2]: > 1000 nM

CN(C)C(=O)Cc1ccc(Oc2nc(-c3cnc(N)nc3)nc(N3CCOCC3)n2)cc1 [Compound 10189, 2-(4-((4-(2-aminopyrimidin-5-yl)-6-morpholino-1,3,5-triazin-2-yl)oxy)phenyl)-N,N-dimethylacetamide]
inhibition at 1 µM [1]: < 50%
IC50 [2]: < 1000 nM

CN(C)C(=O)c1ccc(Oc2nc(Nc3nccs3)nc(N3CCOCC3)n2)cc1 [Compound 10191, N,N-dimethyl-4-((4-morpholino-6-(thiazol-2-ylamino)-1,3,5-triazin-2-yl)oxy)benzamide]
inhibition at 1 µM [1]: < 50%
IC50 [2]: > 1000 nM

CN(C)C(=O)c1ccc(Oc2nc(-c3cnc(N)s3)nc(N3CCCOCC3)n2)cc1 [Compound 10192, 4-((4-(2-aminothiazol-5-yl)-6-(1,4-oxazepan-4-yl)-1,3,5-triazin-2-yl)oxy)-N,N-dimethylbenzamide]
inhibition at 1 µM [1]: < 50%
IC50 [1]: > 1000 nM
IC50 [2]: > 1000 nM

CNC(=O)c1ccc(Oc2nc(-c3cnc(N)s3)nc(N3CCOCC3)n2)cc1 [Compound 10193, 4-((4-(2-aminothiazol-5-yl)-6-morpholino-1,3,5-triazin-2-yl)oxy)-N-methylbenzamide]
inhibition at 1 µM [1]: < 50%
IC50 [2]: < 1000 nM

CS(=O)(=O)N1CCC(COc2nc(-c3cnc(N)s3)nc(N3CCOCC3)n2)CC1 [Compound 10194, 5-(4-((1-(methylsulfonyl)piperidin-4-yl)methoxy)-6-morpholino-1,3,5-triazin-2-yl)thiazol-2-amine]
inhibition at 1 µM [1]: < 50%
IC50 [2]: < 1000 nM

CN(C)C(=O)c1cccc(Oc2nc(-c3cnc(N)s3)nc(N3CCOCC3)n2)c1 [Compound 10195, 3-((4-(2-aminothiazol-5-yl)-6-morpholino-1,3,5-triazin-2-yl)oxy)-N,N-dimethylbenzamide]
inhibition at 1 µM [1]: < 50%
IC50 [2]: < 1000 nM

CN(C)C(=O)c1ccc(Nc2nc(-c3cnc(N)s3)nc(N3CCOCC3)n2)cc1 [Compound 10196, 4-((4-(2-aminothiazol-5-yl)-6-morpholino-1,3,5-triazin-2-yl)amino)-N,N-dimethylbenzamide]
inhibition at 1 µM [1]: < 50%
IC50 [2]: < 1000 nM
